Source: patent publication US20090163546A1, “DIACYLGLYCEROL ACYLTRANSFERASE INHIBITORS” (priority 2007, published 2009)

System: DGAT
Test: DGAT Phospholipid FlashPlate Assay
Assay type: biochemical
Settings: DGAT pellet, DAG-coated PL-FlashPlate, 14C-Pal-CoA, 37° C. for 1 hour; read-out: Activity in DGAT Phospholipid FlashPlate Assay (A = IC50 < 0.10 μM, B = IC50 ≧ 0.10 μM)
Method: Materials for the assay were: PL-FlashPlate: Phospholipid FlashPlates from PerkinElmer, catalog number SMP108; DAG (1,2-Dioleoyl-sn-glycerol) 10 mM suspended in water containing 0.1% Triton X-100; ^14C-Pal-CoA (palmitoyl coenzyme A, [palmitoyl-1-^14C]) from PerkinElmer, catalog number NEC-555 with a specific activity of 55 mCi/mmol; and DGAT pellet, with a protein concentration of 9.85 mg/ml.
Aqueous buffers were prepared or purchased as follows: The coating buffer (CB) was purchased from PerkinElmer, catalog number SMP900A; the reaction buffer (RB) was 50 mM Tris-HCl, pH 7.5, 100 mM NaCl, 0.01 % BSA in water; the washing buffer (WB) is 50 mM Tris-HCl, pH 7.5, 100 mM NaCl, 0.05 % deoxycholic acid sodium salt in water; the dilution buffer (DB) was 50 mM Tris-HCl, pH 7.5, 100 mM NaCl, 1 mM EDTA, 0.2% Triton X-100 in water.
1,2-Dioleoyl-sn-glycerol (DAG, 10 mmoles) was diluted to 500 μM with coating buffer (CB). The diluted DAG solution was then added to 384-well PL-FlashPlates at 60 μl per well, and incubated at room temperature for 2 days. The coated plates were then washed twice with washing buffer (WB) before use. Test compounds were serial diluted to 2000, 666.7, 222.2, 74.1, 24.7, 8.2, 2.7 and 0.9 μM in 100% DMSO. Diluted compound were further diluted 10 fold with reaction buffer (RB). ^14C-Pal-CoA was diluted to 8.3 μM with RB. The DGAT pellet was diluted to 0.13 mg protein/ml with dilution buffer (DB) immediately before it was added to the PL-FlashPlates to start the reaction. 20 μl of the RB-diluted compounds (or 10% DMSO in RB for Total and Blank), 15 μl of RB diluted 14C-Pal-CoA and 15 μl of DB diluted DGAT pellet (DB without DGAT for Blanks) were transferred to each well of the PL-FlashPlates. The reaction mixtures were incubated at 37° C. for 1 hour. The reactions were stopped by washing 3 times with WB. Plates were sealed with Top-seal and read on a Topcount instrument.
Calculation of IC50: The IC50 values for each compound were generated using an Excel template. The Topcount rpm readings of Total and Blank were used as 0% and 100% inhibition. The percent inhibition values of reactions in the presence of compounds were calculated, and plotted against compound concentrations. All data were fitted into a Dose Response One Site model (4 parameter logistic model) as the following:
(A+((B−A)/(1+((x/C)̂D)))),
with A and B as the bottom and top of the curve ([…]), respectively, and C as IC50 and D as Hill Coefficient of the compound.

IC50 [nM]	SMILES
≥ 100	O=C(Nc1cccc(C(F)(F)F)c1)Nc1ccc2c(c1)c(=O)[nH]n2Cc1ccccc1 [Example 34, 1-(1-Benzyl-3-oxo-2,3-dihydro-1H-indazol-5-yl)-3-(3-trifluoromethyl-phenyl)-urea]
< 100	CCCn1[nH]c(=O)c2cc(NC(=O)Nc3cc(Cl)ccc3OC)ccc21 [Example 7, 1-(5-Chloro-2-methoxy-phenyl)-3-(3-oxo-1-propyl-2,3-dihydro-1H-indazol-5-yl)-urea]
≥ 100	CCCn1[nH]c(=O)c2cc(NC(=O)Nc3ccccc3OC(F)(F)F)ccc21 [Example 4, 1-(3-Oxo-1-propyl-2,3-dihydro-1H-indazol-5-yl)-3-(2-trifluoromethoxy-phenyl)-urea]
≥ 100	COc1ccc(Cl)cc1NC(=O)Nc1ccc2c(c1)c(=O)[nH]n2Cc1ccccc1 [Example 1, 1-(1-Benzyl-3-oxo-2,3-dihydro-1H-indazol-5-yl)-3-(5-chloro-2-methoxy-phenyl)-urea]
≥ 100	CCCn1[nH]c(=O)c2cc(NC(=O)Nc3ccc(F)cc3F)ccc21 [Example 18, 1-(2,4-Difluoro-phenyl)-3-(3-oxo-1-propyl-2,3-dihydro-1H-indazol-5-yl)-urea]
≥ 100	COc1ccccc1NC(=O)Nc1ccc2c(c1)c(=O)[nH]n2Cc1ccccc1 [Example 3, 1-(1-Benzyl-3-oxo-2,3-dihydro-1H-indazol-5-yl)-3-(2-methoxy-phenyl)-urea]
≥ 100	CCCn1[nH]c(=O)c2cc(NC(=O)Nc3cccc(Br)c3)ccc21 [Example 19, 1-(3-Bromo-phenyl)-3-(3-oxo-1-propyl-2,3-dihydro-1H-indazol-5-yl)-urea]
≥ 100	CCCn1[nH]c(=O)c2cc(NC(=O)Nc3ccc(C(F)(F)F)cc3)ccc21 [Example 13, 1-(3-Oxo-1-propyl-2,3-dihydro-1H-indazol-5-yl)-3-(4-trifluoromethyl-phenyl)-urea]
≥ 100	CCCn1[nH]c(=O)c2cc(NC(=O)Nc3ccccc3)ccc21 [Example 14, 1-(3-Oxo-1-propyl-2,3-dihydro-1H-indazol-5-yl)-3-phenyl-urea]
≥ 100	CCCn1[nH]c(=O)c2cc(NC(=O)Nc3ccc(Cl)cc3Cl)ccc21 [Example 12, 1-(2,4-Dichloro-phenyl)-3-(3-oxo-1-propyl-2,3-dihydro-1H-indazol-5-yl)-urea]
≥ 100	CCCn1[nH]c(=O)c2cc(NC(=O)Nc3ccccc3N3CCCCC3)ccc21 [Example 28, 1-(3-Oxo-1-propyl-2,3-dihydro-1H-indazol-5-yl)-3-(2-piperidin-1-yl-phenyl)-urea]
≥ 100	CCCn1[nH]c(=O)c2cc(NC(=O)Nc3cccc(Cl)c3)ccc21 [Example 15, 1-(3-Chloro-phenyl)-3-(3-oxo-1-propyl-2,3-dihydro-1H-indazol-5-yl)-urea]
≥ 100	CCCn1[nH]c(=O)c2cc(NC(=O)Nc3cccc(C)c3)ccc21 [Example 16, 1-(3-Oxo-1-propyl-2,3-dihydro-1H-indazol-5-yl)-3-m-tolyl-urea]
≥ 100	CCCn1[nH]c(=O)c2cc(NC(=O)Nc3ccccc3C(C)CC)ccc21 (stereo not shown) [Example 29, 1-(2-sec-Butyl-phenyl)-3-(3-oxo-1-propyl-2,3-dihydro-1H-indazol-5-yl)-urea]
< 100	CCCn1[nH]c(=O)c2cc(NC(=O)Nc3cccc4cccnc34)ccc21 [Example 27, 1-(3-Oxo-1-propyl-2,3-dihydro-1H-indazol-5-yl)-3-quinolin-8-yl-urea]
≥ 100	CCCn1[nH]c(=O)c2cc(NC(=O)Nc3ccccc3F)ccc21 [Example 22, 1-(2-Fluoro-phenyl)-3-(3-oxo-1-propyl-2,3-dihydro-1H-indazol-5-yl)-urea]
≥ 100	COc1c(Cl)cccc1NC(=O)Nc1ccc2c(c1)c(=O)[nH]n2Cc1ccccc1 [Example 23, 1-(1-Benzyl-3-oxo-2,3-dihydro-1H-indazol-5-yl)-3-(3-chloro-2-methoxy-phenyl)-urea]

IC50 [nM]	SMILES
≥ 100	O=C(Nc1ccc2c(c1)c(=O)[nH]n2Cc1ccccc1)Nc1ccccc1N1CCCCC1 [Example 30, 1-(1-Benzyl-3-oxo-2,3-dihydro-1H-indazol-5-yl)-3-(2-piperidin-1-yl-phenyl)-urea]
< 100	CCCn1[nH]c(=O)c2cc(NC(=O)Nc3ccccc3CC)ccc21 [Example 10, 1-(2-Ethyl-phenyl)-3-(3-oxo-1-propyl-2,3-dihydro-1H-inidazol-5-yl)-urea]
≥ 100	CC(C)Oc1cccc(NC(=O)Nc2ccc3c(c2)c(=O)[nH]n3Cc2ccccc2)c1 [Example 33, 1-(1-Benzyl-3-oxo-2,3-dihydro-1H-indazol-5-yl)-3-(3-isopropoxy-phenyl)-urea]
≥ 100	CCCn1[nH]c(=O)c2cc(NC(=O)Nc3cc(C)ccc3OC)ccc21 [Example 6, 1-(2-Methoxy-5-methyl-phenyl)-3-(3-oxo-1-propyl-2,3-dihydro-1H-indazol-5-yl)-urea]
≥ 100	CCOC(=O)Cn1[nH]c(=O)c2cc(NC(=O)Nc3ccccc3CC)ccc21 [Example 24, {5-[3-(2-ethyl-phenyl)-ureido]-3-oxo-2,3-dihydro-indazol-1-yl}-acetic acid ethyl ester]
< 100	CCCn1[nH]c(=O)c2cc(NC(=O)Nc3ccc(Cl)c(Cl)c3)ccc21 [Example 9, 1-(3,4-Dichloro-phenyl)-3-(3-oxo-1-propyl-2,3-dihydro-1H-indazol-5-yl)-urea]
≥ 100	CCCCc1ccc(NC(=O)Nc2ccc3c(c2)c(=O)[nH]n3CCC)cc1 [Example 5, 1-(4-Butyl-phenyl)-3-(3-oxo-1-propyl-2,3-dihydro-1H-indazol-5-yl)-urea]
≥ 100	CCc1ccccc1NC(=O)Nc1ccc2c(c1)c(=O)[nH]n2CCOCCOC [Example 25, 1-(2-ethyl-phenyl)-3-{1-[2-(2-methoxy-ethoxy)-ethyl]-3-oxo-2,3-dihydro-1H-indazol-5-yl}-urea]
≥ 100	CCCn1[nH]c(=O)c2cc(NC(=O)Nc3ccccc3Cl)ccc21 [Example 21, 1-(2-Chloro-phenyl)-3-(3-oxo-1-propyl-2,3-dihydro-1H-indazol-5-yl)-urea]
≥ 100	CCCn1[nH]c(=O)c2cc(NC(=O)Nc3cccc(F)c3)ccc21 [Example 17, 1-(3-Fluoro-phenyl)-3-(3-oxo-1-propyl-2,3-dihydro-1H-indazol-5-yl)-urea]
≥ 100	CCc1ccccc1NC(=O)Nc1ccc2c(c1)c(=O)[nH]n2CCOC [Example 26, 1-(2-ethyl-phenyl)-3-[1-(2-methoxy-ethyl)-3-oxo-2,3-dihydro-1H-indazol-5-yl]-urea]
≥ 100	C#Cc1cccc(NC(=O)Nc2ccc3c(c2)c(=O)[nH]n3CCC)c1 [Example 31, 1-(3-Ethynyl-phenyl)-3-(3-oxo-1-propyl-2,3-dihydro-1H-indazol-5-yl)-urea]
≥ 100	CCOc1ccccc1NC(=O)Nc1ccc2c(c1)c(=O)[nH]n2Cc1ccccc1 [Example 2, 1-(1-Benzyl-3-oxo-2,3-dihydro-1H-indazol-5-yl)-3-(2-ethoxy-phenyl)-urea]
≥ 100	CCCn1[nH]c(=O)c2cc(NC(=O)Nc3cc(Cl)ccc3Cl)ccc21 [Example 11, 1-(2,5-Dichloro-phenyl)-3-(3-oxo-1-propyl-2,3-dihydro-1H-indazol-5-yl)-urea]
≥ 100	CCCn1[nH]c(=O)c2cc(NC(=O)Nc3ccccc3C(C)C)ccc21 [Example 8, 1-(2-Isopropyl-phenyl)-3-(3-oxo-1-propyl-2,3-dihydro-1H-indazol-5-yl)-urea]
≥ 100	CCCn1[nH]c(=O)c2cc(NC(=O)Nc3cccc(C(F)(F)F)c3)ccc21 [Example 32, 1-(3-Oxo-1-propyl-2,3-dihydro-1H-indazol-5-yl)-3-(3-trifluoromethyl-phenyl)-urea]
≥ 100	CCCn1[nH]c(=O)c2cc(NC(=O)Nc3ccccc3OC)ccc21 [Example 20, 1-(2-Methoxy-phenyl)-3-(3-oxo-1-propyl-2,3-dihydro-1H-indazol-5-yl)-urea]
